Experimental findings from publication PMC12525657 (Molecules, 2025) are described below.

NP, sequence (P15682 whole entry): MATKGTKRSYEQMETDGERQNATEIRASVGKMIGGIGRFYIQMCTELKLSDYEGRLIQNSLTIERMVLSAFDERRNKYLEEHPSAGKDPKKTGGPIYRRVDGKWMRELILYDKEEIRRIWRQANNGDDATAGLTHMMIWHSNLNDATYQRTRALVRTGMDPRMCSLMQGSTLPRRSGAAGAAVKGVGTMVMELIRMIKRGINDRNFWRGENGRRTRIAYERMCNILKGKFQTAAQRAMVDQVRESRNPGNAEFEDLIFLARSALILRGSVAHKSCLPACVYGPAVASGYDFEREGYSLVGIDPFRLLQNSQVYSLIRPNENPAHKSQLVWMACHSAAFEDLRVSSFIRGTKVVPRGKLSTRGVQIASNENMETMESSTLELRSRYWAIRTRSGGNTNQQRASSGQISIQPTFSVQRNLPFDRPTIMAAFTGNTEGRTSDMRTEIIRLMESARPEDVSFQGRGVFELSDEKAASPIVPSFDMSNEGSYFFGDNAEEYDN

The assay concerns the target NP (Influenza A virus, UniProt P15682). Kind of assay: biochemical. Format: binding.
`Cc1onc(-c2ccccc2)c1C(=O)N1CCN(c2ccc([N+](=O)[O-])cc2Cl)CC1` [nucleozin, reference compound] came in with a Kd of 9.73 µM.

Consider `O=C(O)CCC(=O)Nc1nc2n(n1)C(c1ccc(Cl)cc1)C=C(c1ccc(Cl)cc1)N2` (centres unmarked) [Compound 13], for which the affinity, expressed as Kd, was 38.2 µM and the “binding affinity for NP relative to nucleozin” value is listed as “higher binding affinity for NP than nucleozin”.

Regarding `O=C(O)CCC(=O)N1N=C(c2c(O)nc3ccc(Br)cc3c2-c2ccccc2)CC1c1ccco1` (centres unmarked) [Compound 1], the affinity, expressed as Kd, was 150 µM and the “binding affinity for NP relative to nucleozin” value was “higher binding affinity for NP than nucleozin”.

For the compound `COc1ccc(C2CC(c3c(-c4ccccc4)c4cc(Cl)ccc4[nH]c3=O)=NN2C(=O)CCC(=O)O)cc1` (centres unmarked) [Compound 8], the affinity, expressed as Kd, was 78.5 µM and the “binding affinity for NP relative to nucleozin” value was “higher binding affinity for NP than nucleozin”.

Regarding `Cc1ccc([C@@H]2C=C(c3ccc(Cl)cc3)Nc3nc(NC(=O)CCCC(=O)O)nn32)cc1` [Compound 4], the “binding affinity for NP relative to nucleozin” value is reported as “higher binding affinity for NP than nucleozin”.

As for `COc1ccc([C@@H]2C=C(c3ccc(Cl)cc3)Nc3nc(NC(=O)CCCC(=O)O)nn32)cc1` [Compound 12], the “binding affinity for NP relative to nucleozin” value is recorded as “higher binding affinity for NP than nucleozin”.

In the case of `O=C(O)CCCC(=O)Nc1nc2n(n1)[C@H](c1ccccc1)C=C(c1ccc(Cl)cc1)N2` [Compound 14], the Kd was found to be 69.7 µM and the “binding affinity for NP relative to nucleozin” value is “higher binding affinity for NP than nucleozin”.

With `COc1ccc([C@H]2CC(c3c(-c4ccccc4)c4cc(Br)ccc4[nH]c3=O)=NN2C(=O)CCC(=O)O)cc1` [Compound 3], the Kd was determined as 210 µM and the “binding affinity for NP relative to nucleozin” value is listed as “higher binding affinity for NP than nucleozin”.

Take `O=C(O)CCC(=O)N1N=C(c2c(-c3ccccc3)c3cc(Br)ccc3[nH]c2=O)C[C@@H]1c1ccc([N+](=O)[O-])cc1` [Compound 9]: the “binding affinity for NP relative to nucleozin” value is “higher binding affinity for NP than nucleozin”.
